The structures appear in SMILES notation. Where two headings read alike, the source gives them in different places.

From PMC11602115 (Journal of Medicinal Chemistry, 2017) come the findings set out here.

The target of data set [1] is IP (Homo sapiens, UniProt P43119). Put plainly: HTRF cAMP assay, recombinant human IP receptor stably expressed in CHO-K1 cells. The following applies: for Emax: CHO-K1, read-out: hIP % IA; for EC50: HTRF (cAMP) human IP receptor assay, mean of at least three determinations. Also noted: expressed in transfected cells. The class given is cell-based. As for the experimental part: (§1) The new compounds were tested for functional agonist activity in a standard (Cisbio) cAMP assay using recombinant IP or DP1 receptors stably expressed in CHO-K1 cells. Clonal cell lines were derived following standard protocols, but receptor expression levels were kept to a minimum to preclude receptor reserve effects.
Chain of IP (P43119 whole entry): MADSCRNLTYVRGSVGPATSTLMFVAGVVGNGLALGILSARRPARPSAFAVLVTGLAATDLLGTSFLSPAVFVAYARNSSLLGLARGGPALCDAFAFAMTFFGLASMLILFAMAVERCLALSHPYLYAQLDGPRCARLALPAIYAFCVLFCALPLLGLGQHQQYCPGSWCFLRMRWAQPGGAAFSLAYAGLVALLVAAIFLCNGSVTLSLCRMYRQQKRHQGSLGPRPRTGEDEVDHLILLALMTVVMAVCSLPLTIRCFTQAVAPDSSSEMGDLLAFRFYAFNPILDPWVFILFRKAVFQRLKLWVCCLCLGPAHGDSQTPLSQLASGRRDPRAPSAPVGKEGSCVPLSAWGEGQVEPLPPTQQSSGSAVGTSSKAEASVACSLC
(§2) For development of cAMP accumulation assays, recombinant IP or DP1 receptors were stably expressed in CHO-K1 cells and clonal cell lines derived following standard protocols. Receptor expression levels were minimized to preclude receptor reserve effects. HTRF cAMP assays were performed according to the manufacturer’s instructions (Cisbio, cAMP Dynamic 2 assay kit; no. 62AM4PEJ). IP receptor-expressing cells were harvested, resuspended in assay buffer (PBS containing 1 mM IBMX and 0.2% BSA) at a density of 200 000 cells per mL, and dispensed into 384-well assay plates (PerkinElmer Proxiplate no. 6008280) at 5 μL per well. Test compounds were solubilized and serially diluted in DMSO using 5-fold dilutions to generate a 10-point dose–response curve with a top concentration of 10 μM. The samples were then further diluted in PBS to achieve a 2× stock. Diluted compounds were then transferred to a triplicate set of assay plates (5 μL per well). After a 1 h incubation at room temperature, 5 μL of cAMP-D2 reagent diluted in lysis buffer was added to each well followed by 5 μL of cryptate reagent. Plates were then incubated at room temperature for 1 h prior to reading. Time-resolved fluorescence measurements were collected on PerkinElmer Envision or BMG Pherastar microplate readers.

Data set [2] can be described thus: Rat PK (iv and oral). The format is in vivo. Particulars: for AUC(0-inf) / bioavailability: Sprague-Dawley, plasma; for AUC(0-inf): after oral administration 10 mg/kg (5m 10.5); for bioavailability: po, 10 mg/kg; for Cmax / Tmax: po 10 mg/kg (5m 10.5); for T1/2: terminal half-life after iv 2 mg/kg (5m 2.1); for Clobs: total clearance, iv 2 mg/kg (5m 2.1).
Data set [3] in a line: Stability in rat microsome preparations. The class given is in vitro ADME. The following applies: incubation at 37 °C, rat microsomes; read-out: rat MS, T1/2. An excerpt: (§3) Table 1 Screening Data for Selected Analogues ^a | column: human and rat MS, T1/2 (min) ^g
In data set [4] the target is rat IP (Rattus norvegicus, UniProt P43253). Put plainly: HTRF cAMP assay, recombinant rat IP receptor. The following applies: for EC50: HTRF (cAMP) rat IP receptor assay, mean of at least three determinations; for Emax: read-out: rIP % IA. More on the design: expressed in transfected cells. The class given is cell-based. As for the experimental part: as §1, §2
Chain of rat IP (P43253 whole entry): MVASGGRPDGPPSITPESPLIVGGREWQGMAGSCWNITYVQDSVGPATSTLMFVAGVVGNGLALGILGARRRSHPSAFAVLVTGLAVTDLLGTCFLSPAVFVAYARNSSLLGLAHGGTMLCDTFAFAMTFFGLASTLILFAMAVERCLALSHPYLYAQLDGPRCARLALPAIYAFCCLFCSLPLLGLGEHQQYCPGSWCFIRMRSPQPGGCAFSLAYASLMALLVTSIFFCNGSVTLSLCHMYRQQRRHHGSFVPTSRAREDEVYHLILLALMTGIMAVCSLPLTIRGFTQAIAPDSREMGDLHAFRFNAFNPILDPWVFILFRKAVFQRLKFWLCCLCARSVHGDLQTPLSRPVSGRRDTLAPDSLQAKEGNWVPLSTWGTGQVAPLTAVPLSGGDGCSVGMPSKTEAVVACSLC
A general note: Time-resolved FRET reads energy transfer from a long-lived donor to a nearby acceptor.

In data set [5] the target is T1, human DP1 receptor (Homo sapiens, UniProt Q13258).
T1 construct: expressed in transfected cells
T1 sequence (Q13258 1-359): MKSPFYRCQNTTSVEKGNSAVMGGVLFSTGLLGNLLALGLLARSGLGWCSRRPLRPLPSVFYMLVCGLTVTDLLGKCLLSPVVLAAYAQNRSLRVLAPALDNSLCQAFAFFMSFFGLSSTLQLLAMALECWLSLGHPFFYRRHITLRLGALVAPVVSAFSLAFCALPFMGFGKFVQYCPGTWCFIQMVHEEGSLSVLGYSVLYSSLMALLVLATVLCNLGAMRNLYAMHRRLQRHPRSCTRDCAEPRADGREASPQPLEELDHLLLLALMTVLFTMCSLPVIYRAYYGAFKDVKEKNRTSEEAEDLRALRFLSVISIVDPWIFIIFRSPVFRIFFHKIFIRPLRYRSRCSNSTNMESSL
Put plainly: HTRF cAMP assay, recombinant human DP1 receptor in CHO-K1 cells. Particulars: for Emax: CHO-K1, intrinsic activity relative to 1 μM PGD2, read-out: hDP1 % IA. The class given is cell-based. As for the experimental part:
as §1, §2

For data set [6], the system named is human platelet. The data set is described as follows: Inhibition of ADP-induced human platelet aggregation. The format is cell-based. Particulars: aggregation induced by 2.5 μM ADP, mean of at least two determinations. The protocol:
Such aggregated and activated platelets produce vasoactive substances such as thromboxane and serotonin that may cause harmful vasoconstriction and vascular remodeling.[13] […] This secondary assay was carried out as previously described,[14] with aggregation induced by 2.5 μM ADP in the presence or absence of IP receptor agonists.

The nature of data set [7]: Stability in human microsome preparations. The format is in vitro ADME. Particulars: incubation at 37 °C, human microsomes; read-out: human MS, T1/2.
Text: as §3

Data set [8] deals with EP4 (Homo sapiens, UniProt P35408). Put plainly: cAMP HTRF agonist assay, EP4. The class given is cell-based. Particulars: cAMP HTRF agonist assay. An excerpt: (§4) Table Sup2: Data with some comparator compounds in functional assays.
Chain of EP4 (P35408 whole entry): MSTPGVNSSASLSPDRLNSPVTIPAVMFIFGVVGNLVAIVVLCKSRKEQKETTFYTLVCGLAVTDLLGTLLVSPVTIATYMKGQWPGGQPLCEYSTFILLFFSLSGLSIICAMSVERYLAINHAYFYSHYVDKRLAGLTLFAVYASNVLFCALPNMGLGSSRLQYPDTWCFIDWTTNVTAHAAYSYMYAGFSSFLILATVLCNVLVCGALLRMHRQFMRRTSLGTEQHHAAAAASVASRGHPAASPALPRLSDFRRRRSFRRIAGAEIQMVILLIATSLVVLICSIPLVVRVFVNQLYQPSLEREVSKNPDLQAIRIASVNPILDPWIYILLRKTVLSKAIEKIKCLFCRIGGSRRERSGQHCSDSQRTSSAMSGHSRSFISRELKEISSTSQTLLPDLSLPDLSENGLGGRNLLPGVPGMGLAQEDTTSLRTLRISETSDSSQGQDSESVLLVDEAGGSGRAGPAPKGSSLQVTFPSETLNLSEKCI
(§5) Compound DP1 EP1 EP2 EP3v6 EP4
(§6) EC50, µµµµM (% I.A) EC50, µµµµM (% I.A) EC50, µµµµM (% I.A) EC50, µµµµM (% I.A) EC50, µµµµM (% I.A)
(§7) n = 3 n = 2 n = 8 n = 6 n = 6 […]

The target in data set [9] is EP2 (Homo sapiens, UniProt P43116). Put plainly: cAMP HTRF agonist assay, EP2. The following applies: cAMP HTRF agonist assay. The format is cell-based. An excerpt: Table Sup2: Data with some comparator compounds in functional assays. […]
Chain of EP2 (P43116 whole entry): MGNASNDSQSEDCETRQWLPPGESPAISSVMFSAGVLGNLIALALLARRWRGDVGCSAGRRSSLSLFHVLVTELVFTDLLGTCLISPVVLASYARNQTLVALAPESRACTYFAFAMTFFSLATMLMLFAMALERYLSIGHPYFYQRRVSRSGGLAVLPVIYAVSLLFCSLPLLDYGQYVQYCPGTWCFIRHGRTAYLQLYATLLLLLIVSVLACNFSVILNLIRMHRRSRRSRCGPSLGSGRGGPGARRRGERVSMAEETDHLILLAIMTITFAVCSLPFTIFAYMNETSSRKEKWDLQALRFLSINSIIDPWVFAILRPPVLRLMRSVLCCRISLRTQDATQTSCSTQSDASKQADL
Data set [10] concerns the target T2, EP1 (Homo sapiens, UniProt P34995).
T2 sequence (P34995 1-402): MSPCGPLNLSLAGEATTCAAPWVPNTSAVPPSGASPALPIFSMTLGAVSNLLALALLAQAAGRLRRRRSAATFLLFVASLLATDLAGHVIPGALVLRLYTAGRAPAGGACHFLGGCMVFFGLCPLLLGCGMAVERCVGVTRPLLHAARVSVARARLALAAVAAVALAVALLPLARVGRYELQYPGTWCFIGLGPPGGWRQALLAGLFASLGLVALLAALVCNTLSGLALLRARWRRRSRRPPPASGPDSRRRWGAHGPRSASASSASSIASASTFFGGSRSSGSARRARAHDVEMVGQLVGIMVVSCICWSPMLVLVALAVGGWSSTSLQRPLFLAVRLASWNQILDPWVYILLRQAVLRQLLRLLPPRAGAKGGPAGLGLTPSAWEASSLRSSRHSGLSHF
Put plainly: cAMP HTRF agonist assay, EP1. The format is cell-based.
Text: as §4, §5, §6, §7

Setting [11] is: HTRF (cAMP) human DP1 receptor assay, mean of at least three determinations, read-out: EC50 hDP1.
Where [12] appears, read: cAMP HTRF agonist assay (Gs), Table Sup2, read-out: DP1 EC50.

As to `COc1ccc(N(C(=O)OC[C@H]2CC[C@H](COCC(=O)O)CC2)c2ccccc2)cc1` [5e, 2-(((1r,4r)-4-(((4-Methoxyphenyl)(phenyl)carbamoyloxy)methyl)cyclohexyl)methoxy)acetic Acid], in data set [1], the Emax was 83% and the concentration for a half-maximal effect (EC50) worked out at 3.3 nM. Moreover, in data set [2], the AUC(0-inf) was found to be 3400 ng·h/mL, the bioavailability amounted to 100%, the peak concentration (Cmax) is 950 ng/mL and the Tmax was found to be 0.3 h. In data set [2], this compound gave a T1/2 of 0.3 h and a Clobs of 3.4 L h^–1 kg^–1. Also, in [3], the half-life was > 1 h. Moreover, in data set [4], the EC50 came out at 165 nM and the Emax stood at 91%. Moreover, the Emax in [5] stood at 74%. Also, the 50% effective concentration (EC50) in data set [5] (setting [11]) came to 240 nM. The same compound displayed a concentration for half-maximal inhibition (IC50) in [6] of 22 nM. Moreover, the half-life in data set [7] was > 1 h.

For `COc1cccc(N(C(=O)OC[C@H]2CC[C@H](COCC(=O)O)CC2)c2ccccc2)c1` [5j, 2-(((1r,4r)-4-(((3-Methoxyphenyl)(phenyl)carbamoyloxy)methyl)cyclohexyl)methoxy)acetic Acid], in [1], the Emax stood at 92% and the concentration for a half-maximal effect (EC50) came out at 12 nM. For the same compound, in [2], the total exposure AUC(0-inf) came to 1900 ng·h/mL, the bioavailability came to 86%, the Cmax amounted to 900 ng/mL and the Tmax came out at 0.3 h. In data set [2], this compound yielded a T1/2 of 3.3 h and a Clobs of 5.1 L h^–1 kg^–1. In data set [3], the half-life was 0.883 h. Moreover, in data set [4], the EC50 came out at 470 nM and the Emax worked out at 94%. Also, the Emax in data set [5] came to 68%. Also, in data set [5] (setting [11]), the EC50 was 1720 nM. The IC50 in data set [6] was determined as 23 nM. In addition, the half-life in data set [7] is > 1 h.

In the case of `O=C(O)COC[C@H]1CC[C@H](COC(=O)N(c2ccccc2)c2ccc(F)cc2)CC1` [5l, 2-(((1r,4r)-4-(((4-Fluorophenyl)(phenyl)carbamoyloxy)methyl)cyclohexyl)methoxy)acetic Acid], in [1], the Emax turned out to be 89% and the EC50 was found to be 6.6 nM. In data set [2], the AUC(0-inf) turned out to be 7900 ng·h/mL, the bioavailability is 100%, the Cmax came to 1200 ng/mL and the time of peak concentration (Tmax) came to 0.3 h. In data set [2], this compound gave a T1/2 of 3.9 h and a Clobs of 1.8 L h^–1 kg^–1. For the same compound, in [3], the half-life is > 1 h. Besides, in data set [4], the EC50 worked out at 535 nM and the Emax worked out at 91%. In addition, in [5], the Emax was determined as 55%. The EC50 in data set [5] (setting [11]) came to 620 nM. The compound also gave a half-maximal inhibitory concentration (IC50) in data set [6] of 12 nM. The half-life in [7] was > 1 h.

On to `O=C(O)COC[C@H]1CC[C@H](COC(=O)N(c2ccccc2)c2ccc(Cl)c(F)c2)CC1` [5m, 2-(((1r,4r)-4-(((4-Chloro-3-fluorophenyl)(phenyl)carbamoyloxy)methyl)cyclohexyl)methoxy)acetic Acid], for which, in [1], the Emax came to 85% and the concentration giving a half-maximal response (EC50) came to 3.4 nM. In [2], the area under the curve AUC(0-inf) came out at 2600 ng·h/mL, the bioavailability amounted to 88%, the Cmax stood at 3000 ng/mL and the Tmax is reported as 0.5 h. Moreover, in [2], the T1/2 is on record as 5 h and the Clobs is on record as 0.8 L h^–1 kg^–1. Besides, the half-life in [3] was > 1 h. In data set [4], the EC50 was 400 nM and the Emax was 92%. For the same compound, in data set [5], the Emax came out at 38%. Further, in [5] (setting [11]), the 50% effective concentration (EC50) came to 2050 nM. In addition, in data set [6], it took 23 nM to reach half-maximal inhibition (IC50). For the same compound, the half-life in [7] was > 1 h.

For `O=C(O)COC[C@H]1CC[C@H](COC(=O)N(c2ccccc2)c2ccc(F)c(F)c2)CC1` [5o, 2-(((1r,4r)-4-(((3,4-Difluorophenyl)(phenyl)carbamoyloxy)methyl)cyclohexyl)methoxy)acetic Acid], in [1], the Emax worked out at 88% and the EC50 is 10 nM. Besides, in data set [2], the AUC(0-inf) amounted to 4500 ng·h/mL, the bioavailability was determined as 24%, the Cmax was 1430 ng/mL and the Tmax is on record as 0.833 h. In [2], the T1/2 was determined as 3.2 h and the Clobs stood at 0.6 L h^–1 kg^–1. In data set [3], the half-life is > 1 h. Besides, in data set [4], the EC50 was found to be 640 nM and the Emax was 95%. Also, the Emax in [5] was 45%. For the same compound, in data set [5] (setting [11]), the EC50 turned out to be 5000 nM. In [6], this compound yielded an IC50 of 19 nM. Further, the half-life in data set [7] is > 1 h.

As for `O=C(O)CCCCCCC1C(=O)NC(=O)N1CCC(O)C1CCCCC1` (centres unmarked) [BW245C], the EC50 was > 10000 nM in data set [8], 0.8 nM in [5] (setting [12]) and 790 nM in data set [9]. The “DP1 % I.A” value in data set [5] (cAMP HTRF agonist assay (Gs), Table Sup2) was 98%. Further, in data set [9], the “EP2 % I.A” value came to 73%.

For the compound `CCCCC[C@H](O)/C=C/[C@H]1C(=O)C[C@H](O)[C@@H]1C/C=C\CCCC(=O)O` [PGD2], the figures for the EC50 in data set [10], in data set [5] (setting [12]) and in [9] were > 10000 nM, 1.3 nM and > 10000 nM, respectively.

Broadly, the EC50 is the concentration needed to bring the measured effect to its halfway point. Usually AUC(0-inf) stands for the area under the concentration-time curve extrapolated to infinity. For orientation: bioavailability means the share of a dose that reaches the circulation, judged against a reference dose that is usually intravenous. What is called Cmax is the maximum level reached in the sampled fluid or tissue. One may read the Tmax as the time at which the peak concentration occurs. A word on the IC50: it is the concentration needed to halve the response being measured. Low values mean greater potency in that assay, high ones weaker potency in that assay.
